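Compound exposure: 48 hours, 5 concentrations, 96-well plates. Definition used: TGI = concentration required for complete inhibition of growth.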
Experiments:
Assay in all cases: growth of human tumour cells (NCI), 48 h
[1] = test system: LOX IMVI melanoma
[2] = test system: IGROV1 ovarian
[3] = test system: NCI-H460 lung
[4] = test system: EKVX NSCLC
[5] = test system: SF-268 CNS
[6] = test system: HCT-15 colon
[7] = test system: TK-10 renal
[8] = test system: SW-620 colon
[9] = test system: SNB-19 CNS
[10] = test system: UACC-257 melanoma
[11] = test system: BT-549 breast
[12] = test system: RXF 393 renal
[13] = test system: ACHN renal
[14] = test system: COLO 205 colon
[15] = test system: A549 NSCLC
[16] = test system: K-562 leukemia
[17] = test system: HS 578T breast
[18] = test system: NCI-H23 lung
[19] = test system: NCI-H522 lung
[20] = test system: HOP-62 NSCLC
[21] = test system: SK-MEL-2 melanoma
[22] = test system: SF-539 CNS
[23] = test system: SN12C renal
[24] = test system: OVCAR-4 ovarian
[25] = test system: OVCAR-8 ovarian
[26] = test system: DU-145 prostate
[27] = test system: HL-60(TB) leukemia
[28] = test system: M14 melanoma
[29] = test system: UACC-62 melanoma
[30] = test system: SK-MEL-28 melanoma
[31] = test system: MDA-MB-435
[32] = test system: U251 CNS
[33] = test system: OVCAR-5 ovarian
[34] = test system: MDA-N
[35] = test system: HOP-92 NSCLC
[36] = test system: NCI/ADR-RES ovarian
[37] = test system: MCF7 breast
[38] = test system: PC-3 prostate
[39] = test system: SK-OV-3 ovarian
[40] = test system: 786-0 renal
[41] = test system: MDA-MB-231 breast
[42] = test system: SNB-75 CNS
[43] = test system: SF-295 CNS
[44] = test system: UO-31 renal
[45] = test system: HCC-2998 colon
[46] = test system: OVCAR-3 ovarian
[47] = test system: CCRF-CEM leukemia
[48] = test system: MALME-3M melanoma
[49] = test system: HT29 colon
[50] = test system: A498 renal
[51] = test system: SK-MEL-5 melanoma
[52] = test system: HCT-116 colon
[53] = test system: NCI-H226 lung
[54] = test system: MOLT-4 leukemia
[55] = test system: RPMI-8226 leukemia
[56] = test system: T-47D breast
[57] = test system: SR leukemia
[58] = test system: KM12 colon
[59] = test system: CAKI-1 renal

`C[C@H]1O[C@@H](c2c(O)ccc3ccccc23)C[C@@H](N(C)C)C1O` (stereo partly specified) gave a TGI [1] greater than 100 µM, a TGI [2] greater than 100 µM and a TGI [3] greater than 100 µM. For the same compound, the TGI [4] was greater than 100 µM, the TGI [5] was greater than 100 µM and the TGI [6] was greater than 100 µM. For the same compound, the TGI [7] was greater than 100 µM, the TGI [8] was greater than 100 µM and the TGI [9] was greater than 100 µM. It also gave a TGI [10] greater than 100 µM, a TGI [11] greater than 100 µM and a TGI [12] of 77.3 µM. The TGI [13] was greater than 100 µM, the TGI [14] was greater than 100 µM and the TGI [15] was greater than 100 µM. It also gave a TGI [16] greater than 100 µM, a TGI [17] greater than 100 µM and a TGI [18] greater than 100 µM. For the same compound, the TGI [19] was greater than 100 µM, the TGI [20] was greater than 100 µM and the TGI [21] was greater than 100 µM. It also gave a TGI [22] greater than 100 µM, a TGI [23] greater than 100 µM and a TGI [24] greater than 100 µM. The TGI [25] was greater than 100 µM, the TGI [26] was greater than 100 µM and the TGI [27] was greater than 100 µM. The TGI [28] was greater than 100 µM, the TGI [29] was greater than 100 µM and the TGI [30] was greater than 100 µM. It also gave a TGI [31] greater than 100 µM, a TGI [32] greater than 100 µM and a TGI [33] greater than 100 µM. It also gave a TGI [34] greater than 100 µM, a TGI [35] greater than 100 µM and a TGI [36] greater than 100 µM. For the same compound, the TGI [37] was greater than 100 µM, the TGI [38] was greater than 100 µM and the TGI [39] was greater than 100 µM. It also gave a TGI [40] greater than 100 µM, a TGI [41] greater than 100 µM and a TGI [42] greater than 100 µM. It also gave a TGI [43] greater than 100 µM, a TGI [44] greater than 100 µM and a TGI [45] greater than 100 µM. It also gave a TGI [46] greater than 100 µM, a TGI [47] greater than 100 µM and a TGI [48] greater than 100 µM. The TGI [49] was greater than 100 µM, the TGI [50] was greater than 100 µM and the TGI [51] was greater than 100 µM. For the same compound, the TGI [52] was greater than 100 µM and the TGI [53] was greater than 100 µM.

`Cc1ccc(S(=O)(=O)N2CC3OC(C)(C)OC3C2CO)cc1` (stereo unspecified) gave a TGI [54] greater than 100 µM, a TGI [55] greater than 100 µM and a TGI [2] greater than 100 µM. It also gave a TGI [3] greater than 100 µM, a TGI [5] greater than 100 µM and a TGI [6] greater than 100 µM. The TGI [7] was greater than 100 µM, the TGI [8] was greater than 100 µM and the TGI [56] was greater than 100 µM. The TGI [10] was greater than 100 µM, the TGI [12] was greater than 100 µM and the TGI [13] was greater than 100 µM. It also gave a TGI [14] greater than 100 µM, a TGI [15] greater than 100 µM and a TGI [16] greater than 100 µM. The TGI [17] was greater than 100 µM, the TGI [19] was greater than 100 µM and the TGI [20] was greater than 100 µM. The TGI [21] was greater than 100 µM, the TGI [22] was greater than 100 µM and the TGI [23] was greater than 100 µM. For the same compound, the TGI [24] was greater than 100 µM, the TGI [25] was greater than 100 µM and the TGI [26] was greater than 100 µM. For the same compound, the TGI [28] was greater than 100 µM, the TGI [30] was greater than 100 µM and the TGI [31] was greater than 100 µM. The TGI [32] was greater than 100 µM, the TGI [33] was greater than 100 µM and the TGI [34] was greater than 100 µM. For the same compound, the TGI [35] was greater than 100 µM, the TGI [36] was greater than 100 µM and the TGI [37] was greater than 100 µM. The TGI [38] was greater than 100 µM, the TGI [39] was greater than 100 µM and the TGI [40] was greater than 100 µM. For the same compound, the TGI [41] was greater than 100 µM, the TGI [42] was greater than 100 µM and the TGI [57] was greater than 100 µM. For the same compound, the TGI [58] was greater than 100 µM, the TGI [43] was greater than 100 µM and the TGI [45] was greater than 100 µM. It also gave a TGI [46] greater than 100 µM, a TGI [47] greater than 100 µM and a TGI [48] greater than 100 µM. The TGI [49] was greater than 100 µM, the TGI [50] was greater than 100 µM and the TGI [51] was greater than 100 µM. For the same compound, the TGI [52] was greater than 100 µM, the TGI [53] was greater than 100 µM and the TGI [59] was greater than 100 µM.

With `O=[N+]([O-])C(Cl)C(Cl)C(Cl)=C(Cl)Cl` (stereo unspecified) the TGI [1] was 28.8 µM, the TGI [54] was 47.8 µM and the TGI [2] was 18.3 µM. For the same compound, the TGI [3] was greater than 100 µM, the TGI [4] was greater than 100 µM and the TGI [5] was greater than 70.5 µM. For the same compound, the TGI [6] was 39.7 µM, the TGI [7] was 39.4 µM and the TGI [8] was 38.3 µM. For the same compound, the TGI [9] was greater than 100 µM, the TGI [56] was 47.9 µM and the TGI [10] was 41.9 µM. For the same compound, the TGI [11] was 43.9 µM, the TGI [12] was 33.7 µM and the TGI [13] was 31.1 µM. The TGI [14] was 34 µM, the TGI [15] was greater than 100 µM and the TGI [16] was 85.2 µM. For the same compound, the TGI [17] was 67.5 µM, the TGI [18] was 60.4 µM and the TGI [19] was 38.4 µM. The TGI [20] was greater than 100 µM, the TGI [22] was greater than 70 µM and the TGI [23] was greater than 57.7 µM. For the same compound, the TGI [24] was 31.9 µM, the TGI [25] was greater than 75.2 µM and the TGI [26] was greater than 100 µM. For the same compound, the TGI [27] was 44.1 µM, the TGI [28] was 19.5 µM and the TGI [29] was 32.9 µM. It also gave a TGI [30] of 39 µM, a TGI [31] of 56.7 µM and a TGI [32] greater than 100 µM. It also gave a TGI [33] greater than 82.2 µM, a TGI [34] of 40.6 µM and a TGI [36] greater than 73.9 µM. The TGI [37] was greater than 54.9 µM, the TGI [38] was greater than 57.4 µM and the TGI [39] was greater than 100 µM. The TGI [40] was 22.3 µM, the TGI [41] was 34.6 µM and the TGI [42] was greater than 72.7 µM. For the same compound, the TGI [58] was greater than 100 µM, the TGI [43] was greater than 100 µM and the TGI [44] was greater than 31.6 µM. For the same compound, the TGI [45] was greater than 56.7 µM, the TGI [46] was greater than 56.7 µM and the TGI [47] was 58.6 µM. For the same compound, the TGI [48] was 32.9 µM, the TGI [49] was 36.4 µM and the TGI [50] was greater than 100 µM. It also gave a TGI [51] of 24.4 µM, a TGI [52] of 38.3 µM and a TGI [53] greater than 100 µM. For the same compound, the TGI [59] was 33.2 µM.

For `CCC(=O)Nc1ccc(N=Cc2cccc(Oc3ccccc3)c2)cc1`, the TGI [1] was greater than 100 µM, the TGI [54] was 76.8 µM and the TGI [55] was 63.1 µM. The TGI [2] was greater than 100 µM, the TGI [4] was greater than 100 µM and the TGI [5] was greater than 100 µM. For the same compound, the TGI [6] was greater than 100 µM, the TGI [8] was greater than 100 µM and the TGI [9] was greater than 100 µM. For the same compound, the TGI [56] was greater than 100 µM, the TGI [11] was greater than 100 µM and the TGI [12] was greater than 100 µM. It also gave a TGI [13] greater than 100 µM, a TGI [14] greater than 100 µM and a TGI [15] greater than 100 µM. For the same compound, the TGI [16] was greater than 100 µM, the TGI [17] was greater than 100 µM and the TGI [18] was greater than 100 µM. For the same compound, the TGI [19] was greater than 100 µM, the TGI [20] was greater than 100 µM and the TGI [21] was greater than 100 µM. For the same compound, the TGI [22] was 35.9 µM, the TGI [23] was greater than 100 µM and the TGI [24] was greater than 100 µM. The TGI [25] was 49.1 µM, the TGI [26] was greater than 100 µM and the TGI [27] was 63 µM. It also gave a TGI [28] greater than 100 µM, a TGI [29] greater than 100 µM and a TGI [30] greater than 100 µM. For the same compound, the TGI [31] was greater than 100 µM, the TGI [34] was greater than 100 µM and the TGI [35] was greater than 100 µM. The TGI [36] was greater than 100 µM, the TGI [37] was greater than 100 µM and the TGI [38] was greater than 100 µM. For the same compound, the TGI [39] was greater than 100 µM, the TGI [40] was greater than 100 µM and the TGI [42] was greater than 100 µM. For the same compound, the TGI [57] was 67.9 µM, the TGI [58] was greater than 100 µM and the TGI [43] was greater than 100 µM. The TGI [44] was greater than 100 µM, the TGI [46] was greater than 100 µM and the TGI [47] was 63.9 µM. The TGI [48] was greater than 100 µM, the TGI [49] was greater than 100 µM and the TGI [50] was greater than 100 µM. For the same compound, the TGI [51] was greater than 100 µM, the TGI [52] was greater than 100 µM and the TGI [53] was greater than 100 µM. For the same compound, the TGI [59] was greater than 100 µM.
